The test addresses T1, dopa oxidase (Homo sapiens, UniProt P14679).
T1 sequence (P14679 19-529): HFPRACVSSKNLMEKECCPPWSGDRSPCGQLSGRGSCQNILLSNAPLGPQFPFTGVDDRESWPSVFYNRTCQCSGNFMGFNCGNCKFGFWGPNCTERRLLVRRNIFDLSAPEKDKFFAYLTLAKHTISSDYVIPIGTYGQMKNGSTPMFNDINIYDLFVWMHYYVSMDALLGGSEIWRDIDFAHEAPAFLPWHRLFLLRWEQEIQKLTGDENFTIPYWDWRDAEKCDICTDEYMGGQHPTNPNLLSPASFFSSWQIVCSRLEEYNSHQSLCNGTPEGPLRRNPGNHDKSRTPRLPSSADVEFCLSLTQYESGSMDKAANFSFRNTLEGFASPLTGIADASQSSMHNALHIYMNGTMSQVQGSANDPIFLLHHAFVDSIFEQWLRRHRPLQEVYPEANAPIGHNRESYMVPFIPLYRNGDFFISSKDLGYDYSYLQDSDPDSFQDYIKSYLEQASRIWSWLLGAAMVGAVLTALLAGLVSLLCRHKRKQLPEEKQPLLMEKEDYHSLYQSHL
Put plainly: Dopa oxidase activity in cultured melanocytes (MBTH method). Format: cell-based. The note with it: for Dopa oxidase activity of fractions, result in words: activity-guided fractionation of haguro-so 50% ethanol extract, same procedure as Example 1; for inhibition at 0.1 µM: evaluation concentration 0.1 μM; for inhibition at 0.1 µM / inhibition at 0.5 µM / inhibition at 1 µM: relative to control, read-out: Dopa oxidase inhibitory rate (%); for inhibition at 0.5 µM: evaluation concentration 0.5 μM; for inhibition at 1 µM: evaluation concentration 1.0 μM. As for the experimental part:
Normal human neonatal epidermal melanocytes (NHEMs; KURABO INDUSTRIES, LTD.) were seeded in a 96-well plates at a density of 1×10^4 cells/well ([…]) and cultured at 37° C. under a 5% CO2. Cells were maintained in Medium 254 (KURABO INDUSTRIES, LTD.) containing growth supplement (HMGS) without PMA.
After 3-day culture, the haguro-so extracts (water extract, 50% ethanol extract, or 95% ethanol extract) prepared in accordance with the above Production Examples 1 to 3 and having an evaporation residue of 1.0 w/v % were each added to give a final concentration shown in Table 1 together with Endothelin-1 (ET-1), SCF, α-MSH, Histamine, and PGE2 adjusted to have a final concentration of 1 nM in each medium, and cultured under the conditions of 37° C. and a 5% CO2 for 3 days. For a control, an ethanol aqueous solution (10%, 50%, or 95%) of the equal amount was added.
After completion of culture, Alamar Blue (Invitrogen) reagent was added in an amount of 20 μL/well and incubated for 2 to 3 hours, followed by measuring the fluorescence intensity of the medium to measure the cellular respiration activity. […] The dopa oxidase activity was measured by the following method with reference to the MBTH method (Winder A. et al., 1991, Eur. J. Biochem. 198: 317-326).
To each of the wells containing the solubilized cell solution, 80 μL of the above assay buffer, 60 μL of 20.7 mM MBTH (3-methyl-2-benzothiazolinon hydrazone) solution, and 40 μL of 5 mM L-dopa(L-dihydroxyphenylalanine) solution as a substrate were added, reacted at 37° C. for 30 to 60 minutes, thereby measuring the color reaction thereof at 490 nm absorbance (N=3). The measured values were shown in the relative value to the result of the control.
Normal human neonatal epidermal melanocytes (NHEMs; KURABO INDUSTRIES, LTD.) were inoculated in a 96-well plate in a cell density of 1×10^4 cells/well (100 μL/well) and cultured at 37° C. under a 5% CO2. The medium used was Medium 254 containing PMA(−) growth supplement (HMGS).
After 3-day culture, each of the compounds shown in Table 4 was added to give final concentrations shown in the same Table, together with Endothelin-1 (ET-1), SCF, α-MSH, Histamine, and PGE2 adjusted to give a final concentration of 1 nM in each medium, and cultured under the conditions of 37° C. and a 5% CO2 for 3 days. For a control, a DMSO solution of the equal amount was added.
After completion of the culture, Alamar Blue (Invitrogen) reagent was added in an amount of 20 μL/well and incubated for 2 to 3 hours, followed by measuring the fluorescence intensity of the medium to measure the cellular respiration activity. […] The dopa oxidase activity was measured by the following method with reference to the MBTH method (Winder A. et al., Eur. J. Biochem., 1991, 198: 317-326).
To each of the wells containing the solubilized cell solution, 80 μL of the above assay buffer, 60 μL of 20.7 mM MBTH (3-methyl-2-benzothiazolinon hydrazone) solution and 40 μL of 5 mM L-dopa (L-dihydroxyphenylalanine) solution as a substrate were added, reacted at 37° C. for 30 to 60 minutes, thereby measuring the color reaction thereof at 490 nm absorbance (N=3).

These results are taken from patent US9339454B2, “Skin whitening agent” (Kao Corporation, priority 2011, dated 2016).

Each structure is given as a SMILES string.

Take `COc1cc2c(O[C@H]3OCC(O)(CO)C3O)c3c(c(-c4ccc5c(c4)OCO5)c2cc1OC)C(=O)OC3` (stereo partly shown) [Compound 3, Tuberculatin]: the “Dopa oxidase activity of fractions, result in words” value (“Dopa oxidase activity of fractions” for short) is given as “found”. Also, where the note is “NHEMs, 3 days”, the inhibition at 0.1 µM was 45%, the inhibition at 0.5 µM amounted to 50% and the inhibition at 1 µM stood at 70%.

As to `CCOc1c2c(c(-c3ccc4c(c3)OCO4)c3cc(OC)c(OC)cc13)C(=O)OC2` [Compound 5, 4-Ethoxy-6,7-dimethoxy-9-(1,3-benzodioxol-5-yl)naphtho[2,3-c]furan-1(3H)-one], for the setting “NHEMs, 3 days”, the inhibition at 0.1 µM amounted to 40% and the inhibition at 0.5 µM was 60%.

`COc1cc2c(OC)c3c(c(-c4ccc5c(c4)OCO5)c2cc1OC)C(=O)OC3` [Compound 1, Justicidin A]: the “Dopa oxidase activity of fractions” value is listed as “found”. Further, for the setting “NHEMs, 3 days”, the inhibition at 0.1 µM is 20% and the inhibition at 0.5 µM worked out at 50%. Besides, the “Dopa oxidase inhibitory rate (%)” value (evaluation concentration printed 0.1 μM as third concentration after 0.1 and 0.5, NHEMs, 3 days) worked out at 55%.

Turning to `COc1cc2cc3c(c(-c4ccc5c(c4)OCO5)c2cc1OC)C(=O)OC3` [Compound 2, Justicidin B], the “Dopa oxidase activity of fractions” value is on record as “found”. Moreover, under “NHEMs, 3 days”, the inhibition at 0.1 µM is 10%, the inhibition at 0.5 µM worked out at 30% and the inhibition at 1 µM was found to be 50%.

On to `COc1cc2c(O)c3c(c(-c4ccc5c(c4)OCO5)c2cc1OC)C(=O)OC3` [Compound 4, Diphyllin], for which, where the note is “NHEMs, 3 days”, the inhibition at 0.5 µM is 20% and the inhibition at 1 µM was 40%.

In the case of `COc1cc2c(OC(C)=O)c3c(c(-c4ccc5c(c4)OCO5)c2cc1OC)C(=O)OC3` [Compound 6, 4-acetoxy-6,7-dimethoxy-9-(1,3-benzodioxol-5-yl)naphtho[2,3-c]furan-1(3H)-one], under “NHEMs, 3 days”, the inhibition at 0.5 µM amounted to 40% and the inhibition at 1 µM came to 50%.

As to `COc1c2c(c(-c3ccc4c(c3)OCO4)c3cc4c(cc13)OCO4)C(=O)OC2` [Compound 7, Justicidin F], the inhibition at 0.1 µM (NHEMs, 3 days) worked out at 20%.
